Measured values published in patent US8691772B2, “HSP60, HSP60 peptides and T cell vaccines for immunomodulation” (Yeda Research and Development Co. Ltd., priority 2005, dated 2014).
Ends that are not written are not given here.

How the values were obtained:
[1] = system: SOCS3; assay: SOCS3 expression in human T cells (immunoblot); format: cell-based; conditions: for effect of blocker on HSP60-induced SOCS3 activation: human T cells pre-treated with blocker
[2] = system: ConA-induced hepatitis; assay: ConA-induced hepatitis (acute liver injury); format: in vivo, BALB/c mice
[3] = system: activated A2b T cells; assay: Anti-ergotypic cytokine response (cytokine assays); format: cell-based, Lewis rats; conditions: rats vaccinated with peptide in IFA; response to activated A2b T cells
From the text: (§1) T-cell lines and clones T-cell lines were raised and expanded using antigen presenting cells (APC) and antigens or peptides as described (Mor et al., 1992). Three Lewis rat T-cell lines were used in our experiments: Anti-HSP60, raised against recombinant human HSP60 (human HSP60 is 97% identical to rat HSP60 at the aa level); Anti-p277, raised against the p277 peptide of human HSP60 (96% identical its rat counterpart at the aa level) and Anti-MBP, raised against guinea pig MBP. For ergotypic stimulation, the A2b T-cell clone, specific for the 180-188 epitope of HSP65 (van Eden et al., 1988) was used; similar results were obtained when other rat T-cell clones were used as targets. A2b expresses MHC-I molecules constitutively and CD80, CD86 and MHC-II molecules upon activation, and can present peptide epitopes to T cells. Activated A2b cells were used on day 3 of their stimulation, and resting A2b cells were used on day 14-16 of their rest cycle, unless stated otherwise.
Cytokine assays. Supernatants were collected after 72 hr of stimulation with test antigens or stimulator cells. Pharmingen's OPTEIA IL-10, IL-4 and IFNγ kits (Pharmingen, San Diego, USA) and the TGFβ1 Emax® ImmunoAssay System (Promega, Madison, USA) were used to quantify cytokine release to culture supernatants, as previously described (Quintana et al., 2002b). […]

[4] = system: AA; conditions: DNA or peptide vaccination; Quintana et al., Ragno et al.; cited from earlier work
[5] = system: activated A2b T cells; assay: Anti-ergotypic T-cell proliferation assay; format: cell-based, Lewis rats; conditions: rats vaccinated with peptide in IFA, 26 days after AA induction; compared to Mt3
From the text: as §1
DNA and peptide vaccination. The vectors containing the full-length cDNA of the human hsp60 gene (pHSP60) or the cDNA corresponding to aa 1-140 (pI) or aa 130-260 (pII) have been previously described (Quintana et al., 2002, Quintana et al., 2002b, Quintana et al., 2003, Quintana et al., 2000). […]
Anti-ergotypic T-cell proliferation assay. […] The cultures were harvested and cpm were determined using a beta counter. […]

[6] = system: Mouse splenic purified T cells; assay: Anti-CD3-induced IFNγ secretion (ELISA); format: cell-based, C57BL/6J mice; conditions: for anti-CD3-induced IFNγ secretion: summary of Table 1
Protocol: (§2) T-cell proliferation: Mouse splenic purified T cells (1×10^5) were pre-incubated with the p277 analogs p277(Val^6Val^11) (SEQ ID NO:2) or p277(Ser^6Ser^11) (SEQ ID NO:3) at the indicated concentrations for 30-60 min, and transferred to anti-CD3 coated wells in triplicate or quadruplicate in 200 μl culture medium. After 72 h of incubation (37° C., 5% CO2) the cells were pulsed with 1 μCi [^3H]-thymidine for 7 h, and [^3H] thymidine incorporation was measured using a 96-well plate beta-counter. The mean cpm±Standard Error were calculated for each triplicate or quadruplicate.
Interferon-gamma (IFNγ) secretion to the culture media was determined by using an ELISA assay (OptiEIA kits, BD Pharmingen and Pierce Endogen) following the manufacturer's instructions. Standard curves were established using mouse recombinant cytokines. The assay detection limit was 16-32 pg/ml.

[7] = system: diabetes; conditions: single subcutaneous injection in mineral oil; cited from earlier work
[8] = system: Mouse splenic purified T cells; assay: Anti-CD3-induced T-cell proliferation; format: cell-based, C57BL/6J mice; conditions: for anti-CD3-induced T-cell proliferation: summary of Table 1
From the text: Purification of naïve T cells: Mouse spleen-cell suspensions were depleted of red blood cells by treatment with red blood lysis buffer (Sigma, St Louis, USA). T cells were then purified by negative selection with a T-cell isolation kit containing biotin-conjugated monoclonal antibodies to CD11b, CD45R, DX5 and Ter-119 (Miltenyi Biotec, Bergisch Gladbach, Germany). This procedure routinely yielded T cell preparations that were >95% positive for the CD3 marker as determined by FACS analysis.
Cells and medium: The T-cells cultures were set in RPMI-1640 supplemented with 5% FCS (Hyclon Logan, Utah) 100 U/ml penicillin, 100 μg/ml streptomycin, 50 μM 2β-ME, 12.5 mM hepes, 2 mM L-glutamine, 1 mM sodium pyruvate and non essential amino acids (biological industries 01-340-1 diluted 1:100).
The hamster anti-mouse anti-CD3 antibody was collected by TCA precipitation from 2C11 hybridoma supernatant. For the proliferation assay, non-tissue culture-treated polystyrene flat-bottom 96-well microtiter plates (Nunc 269787) were incubated overnight at 4° C. with 0.5-2 μg/ml anti-CD3 antibody.
as §2

[9] = system: CD4^+CD25^+ T cells; assay: Co-culture of treated CD4+CD25+ T cells with CD4+CD25- T cells; format: cell-based, human; conditions: CD4+CD25+ treated with peptide 1 ng/ml, 2 hours; co-culture with untreated CD4+CD25-
[10] = system: HSP60; assay: HSP60 expression in activated T cells by western blot; format: cell-based, Lewis rats; conditions: LNC with Con A; A2b clone with peptide, 72 hr
Protocol: Western blotting. Cell lysates of resting or activated T cells were prepared by treatment for 15 minutes in the following lysis buffer: NP40 1%, NaCl 0.9%, Tris 50 mM, EDTA 1 mM, PMSF 0.4 mM, pepstatin A 4 μg/ml, leupeptin 4 μg/ml and aprotinin 4 μg/ml. The lysates were centrifuged for 15 min at 14000 rpm and the protein concentration in the supernatant was determined using a BCA protein assay kit (Pierce, Rockford, Ill., USA). The lysates were subjected to PAGE-SDS using a mini-gel apparatus (Bio-Rad Laboratories, Hercules, Calif.); 100 μg of each sample were loaded per well. Two identical gels were run each time in parallel: one gel was stained with Coomassie Brilliant Blue R-250 according to the manufacturer's protocol (Bio-Rad) and the other was electro-transferred to nitrocellulose membranes (Schleicher and Schuell, Dassel, Germany).
The nitrocellulose membranes were washed with PBS and then blocked for 1 hr with 2% bovine serum albumin (Sigma), 2.5% milk powder (Bio-Rad), Tris (Sigma) pH 7.5 10 mM, NaCl 150 mM and 0.02% thimerosal (Sigma). […] Finally, the membranes were developed using the Western Blotting Luminol Reagent (Santa Cruz Biotechnology Inc., Santa Cruz, Calif., USA), exposed to X-ray film and quantified using the NIH Image 1.63 program (National Institutes of Health, USA). Size was determined using pre-stained broad-range protein standard markers (Bio-Rad).

[11] = i.p. 330 μl, 500 ng/ml, 18 and 1 hr prior to ConA, 24 hr after ConA

Molecule: N#C/C(=C/c1ccc(O)c(O)c1)C(=O)NCc1ccccc1 [AG490, reference compound]
- effect of blocker on HSP60-induced SOCS3 activation [1]: abrogated the effect of HSP60on SOCS3 expression

Molecule: VAGGGVTLLQAAPTLDELKLEG [MTp277, reference compound]
- serum level of IL-10 ([2]; 2 hr after ConA): did not seem to have a significant effect on the levels of cytokines
- serum level of TNF-α ([2]; 2 hr after ConA): did not seem to have a significant effect on the levels of cytokines

Molecule: KFGADARALMLQGVDLLADA [Hu3]
- anti-ergotypic cytokine secretion (IFNγ, TGFβ1, IL-10, IL-4) [3]: secreted IFNγ and TGFβ1, but not IL-10 or IL-4
- inhibition of AA by vaccination [4]: can also inhibit AA
- anti-ergotypic proliferative response of LNC [5]: significantly (p<0.05) more effective in inducing an anti-ergotypic proliferative response

Molecule: VLGGGSALLRSIPALDSLTPANED [p277(Ser^6Ser^11)]
- Percent Inhibition of IFNγ secretion ([6]; peptide 0.1 ng/ml): 86.6% ± 11.3%
- Percent Inhibition of IFNγ secretion ([6]; peptide 1 ng/ml): 86.4% ± 1.3%
- Percent Inhibition of IFNγ secretion ([6]; peptide 10 ng/ml): 82.6% ± 4.75%
- anti-CD3-induced IFNγ secretion [6]: inhibited T-cell proliferation and IFNγ secretion
- incidence of diabetes [7]: did not reduce the incidence of diabetes
- anti-CD3-induced T-cell proliferation [8]: inhibited T-cell proliferation and IFNγ secretion

Molecule: polymyxin B [PMB, reference compound]
- effect of blocker on LPS-induced SOCS3 activation ([1]; LPS 100 ng/ml): inhibited by PMB

Molecule: VLGGGVALLRVIPALDSLTPANED [p277(Val^6Val^11)]
- Percent Inhibition of IFNγ secretion ([6]; peptide 0.1 ng/ml): 94% ± 0.81%
- Percent Inhibition of IFNγ secretion ([6]; peptide 1 ng/ml): 88.9% ± 3.4%
- Percent Inhibition of IFNγ secretion ([6]; peptide 10 ng/ml): 86.7% ± 8.8%
- anti-CD3-induced IFNγ secretion [6]: inhibited T-cell proliferation and IFNγ secretion
- expression of activated SOCS3 [1]: induced a marked expression of activated SOCS3 in T cells
- IFN-γ and TNF-α secretion, and proliferation in co-culture [9]: significantly inhibited IFN-γ and TNF-α secretion, and proliferation
- serum level of IL-6 ([2]; 2 hr after ConA): increased the level of IL-6
- serum level of IL-10 ([2]; 2 hr after ConA): significantly increased
- serum level of TNF-α ([2]; 2 hr after ConA): significantly decreased
- serum ALT [2, 11]: significantly inhibited ALT and AST secretion
- serum AST [2, 11]: significantly inhibited ALT and AST secretion
- Percent Inhibition of proliferation ([8]; peptide 0.1 ng/ml): 50% ± 19%
- Percent Inhibition of proliferation ([8]; peptide 1 ng/ml): 73% ± 7.5%
- Percent Inhibition of proliferation ([8]; peptide 10 ng/ml): 69% ± 14%
- anti-CD3-induced T-cell proliferation [8]: inhibited T-cell proliferation and IFNγ secretion

Molecule: Concanavalin A [Con A]
- expression levels of HSP60 (western blot) [10]: triggered a similar increase in the expression levels of HSP60

Molecule: pertussis toxin [reference compound]
- effect of blocker on HSP60-induced SOCS3 activation [1]: had no effect

Molecule: EESNTFGLQLELTEG [Mt176-90]
- expression levels of HSP60 (western blot) [10]: up-regulation of HSP60
